Measured values from US20190069544A1, “COMPOSITION COMPRISING A MEL, A FATTY ACID METHYL ESTER AND A NON-IONIC […] A HLB VALUE GREATER THAN OR EQUAL TO 12” (OLEON NV, priority 2016, published 2019).

Assays:
[1] = tested on: chenopodium plants (Chenopodium album); experiment: Cell activity of plant roots by fluorescent markers after treatment; assay type: in vivo; conditions: 24 to 48 h after treatment, 500 g/ha, 2% ammonium sulphate (FIG. 10)
Method: (§1) Composition 2 according to the invention prepared in Example 1 was used in combination with an herbicide active ingredient (glyphosate) in the treatment of chenopodium plants (Chenopodium album). The chenopodium plants used were at a 2 to 3 leaves stage (BBCH 12-13), and were grown in a phytotron at a temperature of 15° C. during the night and 20° C. during the day, with a photoperiod of 14 hours. The glyphosate used was non-formulated (technical ingredient, reference 4521, Sigma-Aldrich®). […]
The evaluation of the effectiveness was carried out by measuring the cell activity of the roots of the plants 24 to 48 h after treatment. The cell activity is measured by staining the cells using fluorescent markers making it possible to distinguish: • the cells having a metabolic activity (living cells), which emit a green fluorescence; • the structures which emit a blue fluorescence; and • the dead cells, which emit a red fluorescence.
When the cell metabolic activity reduces, the green fluorescence reduces.

[2] = tested on: chenopodium plants (Chenopodium album); experiment: Herbicide effectiveness: destruction of the vegetation, naked eye, 14 days after treatment; assay type: in vivo
Method: as §1
Evaluation of the effectiveness was also carried out by observation of the plants with the naked eye 14 days after treatment. The effectiveness is evaluated in percentage of destruction of the vegetation, taking into account the size of the plants and the symptoms of phytotoxicity such as deformation of the leaves, the appearance of white patches and necrosis.

## O=C(O)CNCP(=O)(O)O [glyphosate]
[1]
  Reduction in the intensity of the fluorescence in the cells of the roots (cell metabolic activity): not observed
[2]; 14 days after treatment (FIGS. 11, 12)
  Phytotoxicity, in words: not observed
[2]; 14 days after treatment, dose 500 g/ha, 2% ammonium sulphate, average of 4 pots of 4 plants
  Effectiveness (average), percentage of destruction of the vegetation: 0%
